# Measured values: patent publication US5608095A, “Alkyl-4-silyl-phenols and esters thereof as antiatherosclerotic agents” (Hoechst Marion Roussel, Inc., priority 1996, dated 1997)
# Like-named read-outs stand apart in the source and are kept apart here.
# Experiments:
# VCAM-1 [1] = assay: Cell surface ELISA for VCAM-1 in human umbilical vein endothelial cells (HUVEC), TNF-alpha induced; type: cell-based; settings: 50 μM, average of three runs
# Protocol: (§1) Cell Surface ELISA for VCAM-1/ICAM-1
# (§2) Proliferating human umbilical vein endothelial cells (HUVEC) or human aortic smooth muscle cells (HASMC) from Clonetics (San Diego, Calif.) were plated onto 96-well plates in 100 μL medium per well at 20,000 cells per cm^2. The cultures were maintained in growth medium (EGM or SMGM2, Clonetics, San Diego, Calif.) for two days prior to addition of cytokines or drugs. Cytokines plus or minus compounds were added for 20 to 24 hours prior to analysis for adhesion molecule levels. Tumor necrosis factor (Genzyme, Cambridge, Mass.) was added to cultures at 500-1000 units/mL. Interleukin-4 (GIBCO-BRL, Gaithersburg, Md.) was added to cultures at 100-200 pg/mL. (Additions were made by transferring 100 [μL of cytokines plus compounds serially diluted on a separate 96-well plate into the plates containing cells. The medium on the cultures was not exchanged prior to addition of effectors). The culture medium was removed, and the monolayers were washed twice with Hanks buffered saline solution (HBSS) at room temperature. The primary antibody (anti-human VCAM-1 from Upstate Biotechnology, Inc., Lake Placid, N.Y. or anti-human ICAM-1 from Immunotech, Inc., Westbrook, Me.) was added to each well (1 μg/mL in HBSS plus 5% newborn calf serum, GIBCO-BRL, Gaithersburg, Md.) and incubated at 37° C. for 1 hr. The wells were washed twice with HBSS, then 100 μL of a 1/1000 dilution of goat anti-mouse IgG conjugated to horse radish peroxidase (BioRad, Hercules, Calif.) in HBSS plus 5% newborn calf serum was added to each well and incubated for 1 hr at 37° C. The wells were washed three times with HBSS, then 100 μL of TMB substrate (BioRad, Hercules, Calif.) was added to each well. The reaction was stopped after blue color developed by addition of 50 μL of 1N H2 SO4. Absorbance is measured at 450 nm with a plate reader. IC50 values were determined from curves of absorbance values obtained from serial dilutions of compounds (dissolved in dimethyl sulfoxide).
# (§3) The IC50 value is defined as the drug concentration that inhibits the cytokine-induced adhesion molecule expression by 50%. Maximal values for adhesion molecule expression in cytokine-induced cultures was […] the basal level of adhesion molecule expression (minus cytokines) in the cultures to determine the level of induction. […] Each drug concentration was tested in quadruplicate wells. Single point tests of compounds at 50 μM were assayed as described for IC50 determinations, except that the data represent the level of inhibition without correction for basal expression. (Basal adhesion molecule expression was 10-20% of the total induced expression). Table 1 summarizes the ability of various compounds of this invention to inhibit VCAM-1 using human aortic smooth muscle cells (HASMC). In these experiments, the cells were coincubated with interleukin-4 and the compounds listed about 20 hr before assaying cell surface VCAM-1 levels. Each column represents a separate experiment.
# (§4) In these experiments, the cells were coincubated with tumor necrosis factor-alpha along with the indicated compounds about 20 to 24 hr before assaying cell surface adhesion molecule expression.
# VCAM-1 [2] = assay: Cell surface ELISA for VCAM-1 in human aortic smooth muscle cells (HASMC), interleukin-4 induced; type: cell-based; settings: 50 μm; for VCAM-1 (Avg.) % inh.: average of HSMC-1 to HSMC-3; for HSMC-1 % inh. of VCAM-1: experiment HSMC-1, interleukin-4, about 20 hr; for HSMC-2 % inh. of VCAM-1: experiment HSMC-2, interleukin-4, about 20 hr; for HSMC-3 % inh. of VCAM-1: experiment HSMC-3, interleukin-4, about 20 hr
# Protocol: as §1, §2, §3
# ICAM-1 = assay: Cell surface ELISA for ICAM-1 in human umbilical vein endothelial cells (HUVEC), TNF-alpha induced; type: cell-based; settings: 50 μM, average of two runs, numbers in parentheses represent negative values
# Protocol: as §1, §2, §3, §4
# [3] = system: oxidation of serum lipids; assay: TBARS assay, serum of cholesterol-fed rabbits; type: in vivo, female New Zealand White rabbits; settings: Oryctolagus cuniculus, po, 168 h; rabbit serum, diet 0.26%, 7 days; read-out: TBARS, percent of control
# Protocol: (§5) Five independent experiments were performed in the following manner. […] Female New Zealand White rabbits (Hazelton, ~2.0-2.3 kg) were fed 0.2% cholesterol enriched rabbit chow (Purina #5322) with or without 0.4% MDL compound (except, MDL 108,804 at 0.26% and MDL 103,491 repeated at 0.6%). The MDL compounds were solubilized in 100% ethanol. MDL 108,208 was not soluble in 100% ethanol, but it was soluble in diethyl ether:ethanol (3:2 by volume). The chow was sprayed with the MDL mixtures and allowed to dry overnight in a chemical fume hood. Control chow was sprayed with ethanol. Rabbits were fed 100 grams food per day for 7 days (0.6% MDL 103,491 were fed for 14 days); water was available ad libitum. On day 7, rabbits (fasted overnight) were bled (~2 mL) from marginal ear vein; 0.6% MDL 103,491 treated rabbits were tested on day 14. They were euthanized by carbon dioxide overdose. The total body and liver weights were recorded in grams. Food consumption was recorded as grams.cndot.day^-1 .cndot.rabbit^-1. Aliquots of fresh serum were used for clinical chemistries, lipoprotein cholesterol determination, thiobarbituric acid reactive substances (TBARS) and compound and metabolite concentrations in serum. Livers (~5 gram aliquots) were frozen at -20° C. for compound and metabolite concentration determination at a later time.
# TBARS are a qualitative indication of the oxidation of lipids in a sample. In this assay the oxidation of serum lipids is initiated with CuSO4, resulting in the formation of aldehydes, such as malondialdehyde (MDA). Upon incubation with thiobarbituric acid, the absorbance of the aldehydes can be detected at 530-540 nm. TBARS values which are lower than control serum values indicate the relative ability of a compound to inhibit the oxidation. TBARS were measured as follows: 50 μL of serum were mixed with 50 μL of 0.9% saline and 400 μL of a 5 mM CuSO4 solution and incubated at 37° C. for 5 hr. The reactions were stopped by addition of 1.0 mL of 20% trichloroacetic acid. Then 1.0 mL of 0.67% thiobarbituric acid in 0.05N sodium hydroxide was added, mixed, and the samples incubated for 30 min at 90° C. Samples were centrifuged briefly to pellet undissolved material, and the supernatants were transferred to a 96-well microtiter plate. Absorbances were measured at 540 nm using a Biotek model EL311 microplate reader. The nmoles of MDA produced were calculated from a standard curve of 0 to 10 nmoles of MDA prepared from malonaldehyde bis(dimethylacetal). Serum samples from treated rabbits were compared to serum samples from control rabbits that received no MDL compound.
# [4] = HPLC quantitation of compound and metabolite concentration in rabbit serum and liver; type: in vivo, female New Zealand White rabbits; settings: diet 0.26%, 7 days
# Protocol: as §5
# Serum and liver concentrations of parent compounds and the metabolites, bisphenol and diphenoquinone, were determined by reverse phase HPLC using a Waters 990 Powerline system. Livers (1 gram) were homogenized with 5.0 mL PBS, pH 7.4, using a Polytron tissue homogenizer at setting 5 for 20-30 seconds. Serum or liver homogenates were extracted as follows: 100 μL of either serum or homogenate were added to 2.0 mL diethyl ether:ethanol (3:1) while vortexing the tube. The sample tubes were capped and centrifuged for 10 min at 5° C. at 3500 rpm in a Beckman GPKR centrifuge with a GH 3.7 rotor. The supernatants were transferred to clean tubes and dried under N2. Samples were reconstituted with 200 μL of acetonitrile:hexane:0.1M ammonium acetate (90:6.5:3.5, by vol.). Then, 100 μL were injected onto a Waters Deltapak C18-300 Å column, and eluted with an 83% acetonitrile:17% water mobile phase at a flow rate of 1.5 mL/min. Absrobances at the wavelengths of 240, 254, and 420 nm were recorded. Compound concentrations were calculated from known quantities of authentic parent compounds after correction for recovery; the range of recovery from spiked samples was 40 to 100%. The lowest detectable limit for this class of compounds was ~0.5 μg/mL. Concentrations were calculated as μg/mL of serum and μg/g of liver.
# [5] = system: serum cholesterol, LDL, HDL, triglycerides; assay: Serum lipids and lipoprotein cholesterol in cholesterol-fed female New Zealand White rabbits; type: in vivo; settings: Oryctolagus cuniculus, po, 168 h, rabbit serum, diet 0.26%, 7 days
# Protocol: as §5
# Blood was allowed to clot at room temperature for 30 minutes. Serum was obtained after centrifugation for 10 min at 5° C. at 3000 rpm in a Beckman GPKR centrifuge with a GH rotor. Fresh serum was analyzed by a COBAS MIRA autoanalyzer (Roche Diagnostics) using Roche diagnostic reagents for total cholesterol (CHOL, kit #44334) and triglyceride (TG, kit #44120). Cholesterol and triglycerides were calculated as mg/dL.
# Lipoprotein fractions (very low density lipoprotein, VLDL, low density lipoprotein, LDL and high density lipoprotein, HDL) were separated on a Sepharose 6HR column (1×30 cm, Pharmacia) attached to a Waters Powerline HPLC system. Fifty μL of serum were injected onto the column and eluted with phosphate buffered saline, pH 7.4, at a flow rate of 0.5 mL/min. Cholesterol reagent (Roche Diagnostics, kit #44334, diluted with 20 mL water and then with 20 mL of 0.9% saline) was added at 0.2 mL/min to the post column eluant and incubated in a knitted PFTE Kratos reaction coil (Applied Biosystems) at 37° C. for 5 min. Absorbance was measured at 500 nm. The lipoprotein subfractions were quantitated as follows: [formula]
# [6] = Food consumption, body and liver weight in cholesterol-fed rabbits; type: in vivo, female New Zealand White rabbits; settings: diet 0.26%, 7 days
# Protocol: as §5
SMILES,VCAM-1 % inh. (VCAM-1 [1]),VCAM-1 (Avg.) % inh. (VCAM-1 [2]),HSMC-1 % inh. of VCAM-1 (VCAM-1 [2]),HSMC-2 % inh. of VCAM-1 (VCAM-1 [2]),HSMC-3 % inh. of VCAM-1 (VCAM-1 [2]),ICAM-1 % inh. (ICAM-1),response vs control in vivo at 0.26 % [3],Liver Parent = parent compound concentration ([4]; rabbit liver),Serum Parent = parent compound concentration ([4]; rabbit serum),"response vs control in vivo at 0.26 % ([5]; read-out: HDL cholesterol, percent of control)","response vs control in vivo at 0.26 % ([5]; read-out: LDL cholesterol, percent of control)","response vs control in vivo at 0.26 % ([5]; read-out: TRIG (triglycerides), percent of control)","response vs control in vivo at 0.26 % ([5]; read-out: chol tot. (total cholesterol), percent of control)","food (grams eaten per day per rabbit), percent of control [6]","body wt., percent of control ([6]; rabbit)","lw/bw (liver weight/body weight), percent of control ([6]; rabbit)"
"Cc1cc(O)c(C)c(C)c1OC[Si](C)(C)c1ccccc1 [MDL 103,653, 2,3,5-Trimethyl-4-[(dimethylphenylsilyl)methyloxy]phenol]",37.7%,56.4%,63.1%,54.0%,52.0%,78.5%,,,,,,,,,,
"CC(C)(C)c1cc(SC[Si](C)(C)C)cc(C(C)(C)C)c1OC(=O)CCC(=O)O [MDL 104,863, 2,6-Di-t-butyl-4-[(trimethylsilyl)methylthio]phenol succinic acid ester]",44.3%,54.8%,56.5%,52.0%,56.0%,53%,,,,,,,,,,
"CC(C)(C)c1cc(OC[Si](C)(C)Cc2ccccc2)ccc1O [MDL 108,804, 2-t-butyl-4-[(dimethylbenzylsilyl)methyloxy]phenol]",,,,,,,49%,0 µg/g,0 µg/mL,109%,82%,143%,91%,100%,101%,96%
